This is an account of results in patent EP0359745B1, “GROWTH FACTOR RECEPTOR” (IMPERIAL CANCER RESEARCH TECHNOLOGY LIMITED, priority 1987, dated 1988).

Non-standard residues stand in square brackets, D forms with d. Residues, ends and D or L forms follow the SMILES beside them. No end group written: not given here.

The target in experiment [1] is Mr 75000-85000 protein (Mus musculus, UniProt P21729). The experiment in a line: ¹²⁵I-GRP affinity labelling (EGS cross-linking) of the Mr 75000-85000 protein in Swiss 3T3 cells, SDS-PAGE and scanning densitometry. In kind it is binding. Also noted: endogenous in cells; host or cells: Swiss 3T3 cells (mouse fibroblasts). The settings on record: for cross-linking of ¹²⁵I-GRP / level of the Mr 75000-85000 protein (in words): summary of Table 1, saturating concentrations of the other mitogens; for Mr 75000-85000 protein % of control: ¹²⁵I-GRP (0.5 nM), 15°C, 2.5 h, 6 mM EGS, additions: GRP 360 nM, GRP (14-27) 30 nM, bombesin 30 nM, litorin 92 nM, neuromedin B 220 nM, [D-Arg¹,D-Pro²,D-Trp^7,9,Leu¹¹] substance P 100 »M, GRP (1-16) 3230 nM, PDGF 5 nM, EGF 83 nM, vasopressin 1000 nM, insulin 1 »g/ml, phorbol 12,13 dibutyrate 2000 nM, substance P 740 nM, substance K 880 nM, somatostatin 610 nM, neurotensin 600 nM. The method, then:
After 2.5 h the cells were washed three times at 15°C with phosphate buffered saline (PBS) ad then incubated for 15 min at 15°C In 1 ml of binding medium, pH 7.4 In the presence of the appropriate cross-linking agent at the concentration indicated. The cross-linking agents (EGS, DSS, DSP and BSCOES) were dissolved in dimethyl sulphoxide immediately prior to use and were added to medium to give a final concentration of dimethylsulphoxide of 1-2%. The cultures were rapidly rinsed twice with PBS at 4°C and solubilized in 0.1ml of 2 x sample buffer 0.2 M Tris-HCl, pH 6.8, 10% (w/v) glycerol, 6% sodium dodecyl sulphate (SDS) (w/v) 4% β-mercaptoethanol (v/v) and 2 mM ethylenediaminetetraacetic acid. Samples were immediately heated at 100°C for 3-5 min and analysed by either one or two-dimensional gel electrophoresis.
Slab gel electrophoresis was performed using 7.5% acrylamide in the separating gel ad 5% in the stacking gel, ad 0.1% SDS (31). After electrophoresis gels were stained, destained and dried down onto paper for autoradiography with Fuji X-ray film (Fuji Photo Film Co. Ltd. Japan). Dried gels were exposed to film for 4-8 days. Two-dimensional gel electrophoresis was performed as described by O'Farrell (32) using isoelectric focusing in the 1st dimension and SDS-polyacrylamide gel electrophoresis (SDS-PAGE) (8% polyacrylamide) in the second dimension. The samples prepared for isoelectric focusing containing 1.4% LKB ampholytes, pH 5-7, plus 0.6% LKD ampholytes, pH 3.5-10, 6M urea, and 2% Nonidet P-40. The Mr 75000-85000 band from autoradiograms was scanned using a Joyce-Loebl double beam densitometer and the areas under specific peaks were measured with a Hewlett-Packard digitizer.
After this time some cells were washed four times with cold (4°C) PBS supplemented with 1 mg/ml BSA, solubilized and total cell associated radioactivity was then determined in a gamma counter. […] The cells were then solubilized and samples were analyzed by SDS-PAGE. After electrophoresis, gels were dried, exposed to film and scanned as described in Materials and Methods. The areas under the individual peaks for the Mr 75000-85000 protein are shown as a function of the concentration of the unlabelled peptide and are expressed as a percentage of the control. […] The level of the Mr 75000-85000 protein expressed in arbitrary units is shown as a function of the concentration of the labelled ligand. Inset: autoradiogram of the gel used for scanning; the Mr 75000-85000 and 160,000 bands are indicated by arrows. All other experimental details were as described in Materials and Methods.
(§1) Figure 4. […] Values are expressed as percentage of the specific binding obtained in the absence of antagonists. […] Each point represents the mean of 3 determinations. […] Specific binding (B) is expressed in pmol/10⁶ cells and is shown in a double-reciprocal plot. Each point represents the mean of duplicate determinations. […] After 2 hours, the cultures were washed twice with binding medium then incubated in 1 ml containing 6 mM ethylene glycol bis (succinimidylsuccinate) (EGS) at pH 7.4 for 15 minutes at 15°C. The cultures were then washed twice with cold phosphate-buffered saline and solubilised in 0.1 ml of 2x sample buffer, then immediately heated at 100°C for 5 minutes and electrophoresed on a 10% polyacrylamide gel.
After the incubation period cultures were treated with 6 mM EGS as described in Materials and Methods. Each value is expressed as a percentage of the level of the Mr 75000-85000 protein obtained with no additons (-). Other experimental details are as described in Materials and Methods.

The test system of experiment [2] is Swiss 3T3 cells. The settings on record: statement in words, earlier work (reference 13); cited from earlier work.
For experiment [3], the target named is T1, GRP receptor (Mus musculus, UniProt P21729).
T1 construct: Confluent and quiescent cultures of Swiss 3T3 cells were incubated at 15°C; endogenous in cells; host or cells: Swiss 3T3 cells (mouse fibroblasts)
The settings on record: statement in words, earlier work (reference 13); cited from earlier work.

Experiment [4] deals with T1, GRP receptor. The experiment in a line: specific [¹²⁵I]GRP binding to intact Swiss 3T3 cells. As for the experimental part: (§2) Cell culture procedure (33), assays of DNA synthesis by ³H-thymidine incorporation (34) ad ¹²⁵I-GRP binding to intact cells (13) were performed as described previously.
as §1

For experiment [5], the system named is H69 cells. The experiment in a line: growth of SCLC cell line in serum-free medium (cell number, Coulter Counter). In kind it is cell-based. As for the experimental part: Figure 6. […] Stock cultures of cell lines H69, H128 and H417 were maintained in RPMI 1640 medium with 10% fetal bovine serum (heat inactivated) in a humidified atmosphere of 10% CO₂:90% air at 37°C. They were passaged every 7 days. Identical growth was obtained in the serum-free medium of RPMI 1640 supplemented with HITES (29) (hydrocortisone, 10 nM; insulin, 5 »g/ml; transferrin, 100 »g/ml; 17β-estradiol, 10 nM; sodium selenite, 30 nM) and 0.25% bovine serum albumin. […] Cell number was determined at intervals over 14 days in a Coulter Counter after disaggregation of cell clumps by syringing through 19G and 21G needles. Each point represents the mean of 3 determinations.
Figure 7. Inhibition of SCLC growth in vitro by [DPro²]spantide and [DPhe⁵]spantide is concentration-dependent. Cultures of H69 cells were washed twice with RPMI 1640 medium then incubated in serum-free medium (as in Figure 6) in the absence (●) or presence of various concentrations of [DPro²]spantide (o,A) and [DPhe⁵]spantide (△,D). Cell number was determined in a Coulter Counter after disaggregation of cell clumps by syringing through 19G and 21 G needles. Samples were incubated for 13 days, when the controls (inset) had achieved 10-fold increase in number, indicated by the arrow. Each point represents the mean (± standard deviation) of 5 determinations.

Experiment [6] relates to Swiss 3T3 cells. As to the kind of experiment: GRP-stimulated rise in cytosolic Ca²⁺ concentration (fura-2 fluorescence) in Swiss 3T3 cells. The format is cell-based, mouse. The method, then: (§3) Figure 5. […] Left: Effects of antagonists on [Ca²⁺]i. Quiescent Swiss 3T3 cells grown on Cytodex 2 beads were washed twice with DMEM and incubated for 10 minutes with fura-2 tetracetoxymethyl ester at 1 »m, then washed three times and suspended in 2 ml of electrolyte solution (6) in the fluorimeter at 37°C and stirred. Fluorescence was recorded continuously in a Perkins-Elmer LS5 luminescence spectrometer with an excitation wavelength of 335 nm and emission wavelength of 510 nm. After a period of equilibration, the following additions were made: solvent, S; antagonist A at 5 »m, A, 5 and 20 »m, A, 20; antagonist D at 5»m, D, 5. […] Values are expressed as percentages of the specific binding obtained with [¹²⁵I]EGF alone at 0.2 nM. The non-specific binding was obtained by the addition of 500-fold excess of unlabelled EGF. Each point represents the mean of 6 determinations.

Experiment [7] has as its system Swiss 3T3 cells. The experiment in a line: reversal of the inhibition of [¹²⁵I]EGF binding induced by GRP in Swiss 3T3 cells. In kind it is cell-based, mouse. The settings on record: read-out: Half-maximal reversal of inhibition (of [¹²⁵I]EGF binding by GRP); [¹²⁵I]EGF 0.2 nM, GRP 3.6 nM, 1 hour, 37°C. The method, then:
as §3

Experiment [8] has as its system Swiss 3T3 cells. The experiment in a line: GRP-induced DNA synthesis ([³H]thymidine incorporation) in Swiss 3T3 cells. The settings on record: for ability to inhibit mitogenesis stimulated by GRP: substance P antagonists tested at 50 »m, ranking in words. In kind it is cell-based, mouse. The method, then:
as §2
Figure 3. Inhibition of GRP-induced DNA synthesis by [DPro²]spantide (A) and [DPhe⁵]spantide (D). […] After 40 hours DNA synthesis was estimated by [³H]thymidine incorporation into acid-precipitable material. […] Each point represents the mean of duplicate determinations. […] Values are expressed as a percentage of [³H]thymidine incorporation obtained in the absence of antagonists (100% = 8.6 x 10⁵ cpm per dish). Each point represents the mean of 4 determinations.

T1 sequence (P21729 whole entry): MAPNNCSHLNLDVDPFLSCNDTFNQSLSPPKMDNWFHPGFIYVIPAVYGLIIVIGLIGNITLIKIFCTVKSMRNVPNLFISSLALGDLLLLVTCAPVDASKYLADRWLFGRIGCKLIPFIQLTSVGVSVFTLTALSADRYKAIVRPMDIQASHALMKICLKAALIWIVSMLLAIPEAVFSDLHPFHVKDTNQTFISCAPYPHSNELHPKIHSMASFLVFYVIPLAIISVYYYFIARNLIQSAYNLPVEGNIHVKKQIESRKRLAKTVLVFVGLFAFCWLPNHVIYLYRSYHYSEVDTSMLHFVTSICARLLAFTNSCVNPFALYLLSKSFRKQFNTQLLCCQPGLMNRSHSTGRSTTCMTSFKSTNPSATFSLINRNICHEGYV
Chain of Mr 75000-85000 protein (P21729 whole entry): as above

Turning to `CSCC[C@H](NC(=O)[C@H](CC(C)C)NC(=O)CNC(=O)[C@H](Cc1ccccc1)NC(=O)[C@H](Cc1ccccc1)NC(=O)[C@H](CCC(N)=O)NC(=O)[C@H](CCC(N)=O)NC(=O)[C@@H]1CCCN1C(=O)[C@H](CCCCN)NC(=O)[C@@H]1CCCN1C(=O)[C@@H](N)CCCNC(=N)N)C(N)=O` [Substance P], the “cross-linking of ¹²⁵I-GRP / level of the Mr 75000-85000 protein (in words)” value (“cross-linking of ¹²⁵I-GRP / level … (in words)” for short) in experiment [1] is recorded as “no effect”. For the same compound, in experiment [2], the “stimulation of DNA synthesis” value is on record as “nor stimulates DNA synthesis”. Besides, in experiment [3], the “inhibition of GRP binding to Swiss 3T3 cells” value is recorded as “neither inhibits”.

Take `CC(C)C[C@H](NC(=O)[C@H](CC(C)C)NC(=O)[C@@H](Cc1c[nH]c2ccccc12)NC(=O)[C@H](Cc1ccccc1)NC(=O)[C@@H](Cc1c[nH]c2ccccc12)NC(=O)[C@H](CCC(N)=O)NC(=O)[C@@H](Cc1ccccc1)NC(=O)[C@@H]1CCCN1C(=O)[C@H](CCCCN)NC(=O)[C@@H]1CCCN1C(=O)[C@H](N)CCCN=C(N)N)C(N)=O` [[DPhe⁵]spantide, D-Arg-Pro-Lys-Pro-D-Phe-Gln-D-Trp-Phe-D-Trp-Leu-Leu-NH₂] (H-[dR]PKP[dF]Q[dW]F[dW]LL-NH2): the figures for the IC50 in experiment [4] (read-out: Half-maximal inhibition of binding) and in experiment [1] (read-out: Half-maximal inhibition (affinity-labelling of the Mr 75000-85000 protein)) were 2.3 µM and 5.5 µM, respectively.

Take `CC(C)C[C@H](NC(=O)[C@H](CC(C)C)NC(=O)[C@@H](Cc1c[nH]c2ccccc12)NC(=O)[C@H](Cc1ccccc1)NC(=O)[C@@H](Cc1c[nH]c2ccccc12)NC(=O)[C@H](CCC(N)=O)NC(=O)[C@@H](Cc1ccccc1)NC(=O)[C@@H]1CCCN1C(=O)[C@H](CCCCN)NC(=O)[C@@H]1CCCN1C(=O)[C@H](N)CCCNC(=N)N)C(N)=O` [[DPhe⁵]spantide, D-Arg-Pro-Lys-Pro-D-Phe-Gln-D-Trp-Phe-D-Trp-Leu-Leu-NH₂] (H-[dR]PKP[dF]Q[dW]F[dW]LL-NH2): the IC50 stood at 24 µM in experiment [5] (H69 cells, serum-free medium, 13 days, read-out: half-maximal effect (inhibition of growth)) and 22 µM in experiment [8] (GRP 3.6 nM, 40 hours, Figure 3 right, read-out: Half-maximal inhibition of DNA synthesis). For the same compound, the “potency of Antagonist D over Antagonist A” value in experiment [5] (H69 growth inhibition) is on record as “more than 5 fold”. Moreover, the “rise in [Ca²⁺]i caused by the addition of GRP” value in experiment [6] (GRP (1 nM), antagonist at 5 »m) is listed as “effective”. The “response to PDGF ([Ca²⁺]i)” value in experiment [6] (antagonist at 5 »m, PDGF at 1 nM, specificity) is on record as “did not prevent”. Further, in experiment [6] (prevention of the GRP-induced rise in [Ca²⁺]i), the “fold more potent than [DPro²]spantide in this assay” value is “at least 4 fold”. In addition, in experiment [4] (10 »m antagonist, double reciprocal plot, number of binding sites unchanged), the “affinity of the receptors of [¹²⁵I]GRP” value was “markedly reduces the affinity”. In experiment [4] ([DPhe⁵]spantide versus [DPro²]spantide, inhibition of specific [¹²⁵I]GRP binding), this compound yielded a difference in potency of 6.1 fold. In experiment [7], the EC50 is 8.7 µM. Also, the “concentration of GRP required to produce half-maximal stimulation of DNA synthesis” value in experiment [8] (antagonist at 20 »m, Figure 3 left) was “markedly increased”. Moreover, the “fold more potent than [DPro²]spantide in inhibiting DNA synthesis induced by GRP” value in experiment [8] (ratio of half-maximal concentrations) was 5.4 fold. In experiment [8], the “ability to inhibit mitogenesis stimulated by GRP” value was “most potent GRP antagonist”.

Consider “GRP (1-16): the 1-16 amino acid fragment of GRP (amino-terminal fragment) (VPLPAGGGTVLTKMYP; Gastrin-releasing peptide; UniProt P07492 24-39, looked up, fragment)”, for which, in experiment [1], the “cross-linking of ¹²⁵I-GRP / level … (in words)” value is “no reduction” and the “Mr 75000-85000 protein % of control” value is reported as 93 % of control. For the same compound, the “stimulation of DNA synthesis” value in experiment [2] was “nor stimulates DNA synthesis”. Moreover, the “inhibition of GRP binding to Swiss 3T3 cells” value in experiment [3] was “neither inhibits”.

With “GRP (14-27): the 14-27 amino acid fragment of GRP (MYPRGNHWAVGHLM; ends and bridges not checked; UniProt P07492 37-50, looked up, fragment)”, the “Mr 75000-85000 protein % of control” value in experiment [1] was 0.4 % of control.

Regarding Neurotensin: unrelated factor, the “Mr 75000-85000 protein % of control” value in experiment [1] is 93 % of control.

On to Somatostatin: neuropeptide, for which, in experiment [1], the “cross-linking of ¹²⁵I-GRP / level … (in words)” value is recorded as “no effect” and the “Mr 75000-85000 protein % of control” value is on record as 97 % of control.

With Spantide, the antagonist activity entry in experiment [8] (even at 100 uM) is listed as “no antagonist activity”. Also, in experiment [8], the “ability to inhibit mitogenesis stimulated by GRP” value is reported as “less potent than either A or D”.

As to “Vasopressin: mitogen for Swiss 3T3 cells”, in experiment [1], the “cross-linking of ¹²⁵I-GRP / level … (in words)” value is “not substantially affected” and the “Mr 75000-85000 protein % of control” value is given as 94 % of control.
